Literature values, collected in US20020044913A1, “Cosmetics to support skin metabolism” (priority 2000, published 2002).
Where two headings read alike, the source gives them in different places.

Assays:
[1] = tested on: carnitine-acetyl-carnitine exchange across the inner mitochondrial membrane
apoptosis = settings: through its action in the mitochondria
[2] = tested on: senescent myocardium (human atrial tissue and rats)
[3] = daily supplements of up to 200 mg for 6-12 months and 100 mg daily for up to 6 y
aged rats = settings: supplementation
oxidant production = settings: carnitine supplementation
[4] = not given; remark: listed apart in the source
skeletal muscle = settings: older individuals (40-73), 20 g/day, one week

C[N+](C)(C)C[C@H](O)CC(=O)[O-] [L-carnitine]
age-associated decrease in mtDNA transcription [1]: reverse
age-related decrease in cardiolipin [1]: reverse the age-related decrease in cardiolipin
age-related decrease of carnitine-acetyl-carnitine exchange activity [1]: slow or reverse this age-related dysfunction
decreased membrane potential [1]: reverse

COC1=C(OC)C(=O)C(C/C=C(\C)CC/C=C(\C)CC/C=C(\C)CC/C=C(\C)CC/C=C(\C)CC/C=C(\C)CC/C=C(\C)CC/C=C(\C)CC/C=C(\C)CCC=C(C)C)=C(C)C1=O [Q10, Coenzyme Q10]
benefit of supplementation (older Finnish men, 100 mg/day): obtained benefit
clinical improvement (woman deficient in Q10, 150 mg/kg): rapidly improved
programmed cell death (apoptosis) (apoptosis): appears to block programmed cell death
tolerance of senescent myocardium to aerobic and ischemic stress ([2]; human atrial tissue and rats): improves the tolerance
recovery of function in older hearts ([2]; older vs younger hearts): corrected the age-specific diminished recovery of function in older hearts
adverse effects [3]: No important adverse effects

O=C(O)CCCC[C@@H]1CCSS1 [R-α-lipoic acid]
age-related decline in mitochondrial membrane potential (aged rats): restore the age-related decline in mitochondrial membrane potential
age-related decrease in oxygen consumption (aged rats): reverse the age-related decrease in oxygen consumption
age-related increase in oxidants (aged rats): significantly lower
glutathione and ascorbic acid levels (aged rats): restore glutathione and ascorbic acid levels to youthful levels
ambulatory activity of aged rats (aged rats; aged rats): triple

CC(=O)O[C@H](CC(=O)[O-])C[N+](C)(C)C [acetyl-L-carnitine]
age-associated decrease in mtDNA transcription [1]: reverse
age-related decrease in cardiolipin [1]: reverse the age-related decrease in cardiolipin
age-related decrease of carnitine-acetyl-carnitine exchange activity [1]: slow or reverse this age-related dysfunction
decreased membrane potential [1]: reverse

C[N+](C)(C)CC(O)CC(=O)[O-] (stereo not shown) [carnitine]
cell antioxidants (oxidant production): decreased cell antioxidants markedly
increase in oxidant production (oxidant production): 30%

CN(CC(=O)O)C(=N)N [creatine]
safety ([4]; 1.5 g-25 g/day for period of at least a year): safe
adverse effects ([4]; athletes, doses up to 75 grams a day for years): without known adverse effects, aside from weight gain
skeletal muscle strength and endurance (skeletal muscle): Increased skeletal muscle strength and endurance

COc1c(O)c(C)c(C/C=C(\C)CC/C=C(\C)CC/C=C(\C)CC/C=C(\C)CC/C=C(\C)CC/C=C(\C)CC/C=C(\C)CC/C=C(\C)CC/C=C(\C)CCC=C(C)C)c(O)c1OC [ubiquinol-10]
oxidative damage to DNA (human lymphocytes): appears to protect human lymphocytes from oxidative damage to DNA
